Source: patent US20160303068A1, “Compositions and Methods For Treating Brain Injury and Brain Diseases” (University of Washington through its Center for …, priority 2013, published 2016)
“Also recorded” adds a separate entry of the source. Each block holds one molecule with its values, some of them ahead of it.

Legend:
[1] = system: AD transgenic mouse models; conditions: in vivo; cited from earlier work
[2] = [3H] paclitaxel distribution in brain via intranasal administration; assay type: in vivo, male CD-1 mice; conditions: 1 μCi [3H] paclitaxel in 1 μl PBS to the right nares
Description: FIGS. 4 A and 4B are graphs showing [^3H] paclitaxel distribution via intranasal administration in male CD-1 mice, 8 weeks, after administration of 1 μCi of [^3H] paclitaxel in 1 μl PBS to the right nares;
FIGS. 4A and 4B show distribution of a taxane (paclitaxel) in the brain, when the taxane is administered intranasally. […] Thus, the intranasally administered taxane can bypass the blood-brain barrier (BBB) via the olfactory epithelium, and thereby provide therapeutic effect to a subject. The treatment methods can advantageously administer drug to the brain (e.g., an injured area of the brain) while minimizing side effects in non-target organs. The methods can have widespread applications. For example, intranasal administration of taxanes can result in decreased neuroinflammation, and can therefore be used in treatment of neuroinflammatory conditions, such as neurodegenerative diseases including Alzheimer's disease and related tauopathies, multiple sclerosis, viral infections, Parkinson's disease, as well as head trauma and mild concussions.

[3] = system: rodent model of traumatic brain injury; test: MRI (T1-weighted, quantitative T2 maps) of injury volume and edema after controlled cortical impact; assay type: in vivo, C57BL6 mice
Description: (§1) Rodent subjects (C57BL6 mice, 10 wks, male, n=12) had craniotomy over the right frontoparietal cortex of 5 mm, plus mild controlled cortical impact (CCI) surgery using a pneumatic impactor (AmScien Instruments, Richmond, Va.) at 6 m/s strike velocity, 1 mm depth of penetration, and 150 ms contact time, under isoflurane anesthesia. Immediately following CCI, 200 ug/kg paclitaxel (n=6) or vehicle (n=6) was applied to the brain injury site. Sham surgery (craniotomy, but no CCI) was performed on controls (n=3).
(§2) At 2 days post-surgery, gait assessment of the subjects was conducted using CatWalk automated gait analysis (Noldus Information Tech, The Netherlands) followed by high-tesla magnetic resonance imaging (14T MR Avance III Ultrashield, Bruker BioSpin, Billerica, Mass.). T1-weighted and quantitative T2 maps were obtained: MDEFT (3D modified driven equilibrium Fourier transform), […]: 12°, TR (repetition time): 5000 ms, TE (echo time): 1.9ms, resolution 0.140×0.140×0.25 mm^3, 64 slices; T2 map: TR=2000 ms, 16 echoes, spacing:6.7 ms, TE1: 6.7 ms, TE 2:13.4 ms, resolution 0.12×0.12×1.0 mm^3, 15 slices. Manual volume of interest (VOI) analysis of injury volume and volume of edema related to injury was performed.

[4] = system: rodent model of traumatic brain injury; test: Macromolecular proton fraction (MPF) imaging of myelin density adjacent to injury after CCI; assay type: in vivo, C57BL6 mice
Description: as §1
Macromolecular proton fraction (MPF) imaging is a quantitative magnetic resonance technique that measures the magnetization transfer between protons bound to water and protons bound to macromolecules. MPF imaging was performed to evaluate myelin degradation adjacent to injury. […] Mean myelin density was calculated for a region of interest (circular region having a diameter of […]) that was larger than the actual injury (1.5 mm).

[5] = system: rodent model of traumatic brain injury; test: CatWalk automated gait analysis after CCI; assay type: in vivo, C57BL6 mice
Description: as §1, §2

[6] = system: rodent model of traumatic brain injury; test: Fractional anisotropy imaging of external capsule integrity after CCI; assay type: in vivo, C57BL6 mice; conditions: following CCI; paclitaxel not intranasally administered
Description: as §1
The MPF results were corroborated using cross-relaxation imaging. Cross-relaxation imaging (CRI) is a quantitative magnetic resonance technique that measures the kinetic parameters of magnetization transfer between protons bound to water and protons bound to macromolecules. Here, in vivo, four-parameter CRI of normal rat brains (n=5) at 3.0 T was first directly compared to histology. The bound pool fraction, f, was strongly associated with myelin density (Pearson's r=0.99, p<0.001). The correlation persisted in separate analyses of gray matter (GM; r=0.89, p=0.046) and white matter (WM; r=0.97, p=0.029). The CRI results validated the MPF results, in that the taxane helped to preserve myelin density around the injury. Fractional anisotropy imaging was carried out to evaluate the integrity of underlying external capsule. […]

3×Tg-AD mice = test: Manganese-enhanced MRI (MEMRI) of axonal transport rates in the olfactory tract, 3×Tg-AD mice; assay type: in vivo; conditions: intranasal 0.6 mg/kg, vs saline or young wild-type controls
Text: MRI: Mice are anesthetized with isoflurane and scanned on an ultra-high resolution 14T MRI (Avance III, Bruker BioSpin Corp, Billerica, Mass.). Dynamic manganese enhanced magnetic resonance imaging (dyMEMRI): Mice are anesthetized with isoflurane and administered a unilateral injection of Sul of 1 M MnCl2 intranasally (with occlusion to block septal window). Parameters for magnetization prepared rapid gradient echo (MPRAGE) (TR/TE=11/5.3 ms; Ti=1000 ms; FA=9 deg acquired matrix 108×108 mm over 55 slices, voxel 0.2×0.2×0.4 mm3 interpolated to 0.1×0.1×0.2 mm3). […] MicroPET: Metabolic brain activity is assessed using FDG-PET performed under isoflurane anesthesia with 30 min uptake after 250 μCi intraperitoneal injection of FDG. […]
The effect of intra-nasal treatment of taxanes on the development of neurodegenerative pathology in a model of Alzheimer's disease was also studied. […] Treatment effectiveness was assessed with the same outcome measures as described in Example 1.
(§3) Intranasal paclitaxel (Hospira, Inc., Lake Forest, Ill.) was administered to 3×Tg-AD mice (0.6 mg/kg in 0.9 percent saline, […] per nostril). […] Dynamic T1-weighted MR imaging detected signal enhancement and post-processing algorithms calculate a relative rate of transport. […]

wild-type mice = test: Manganese-enhanced MRI (MEMRI) of axonal transport rates, wild-type mice; assay type: in vivo; conditions: wild-type mice treated with paclitaxel vs young wild-type controls, p≦0.01
Text: MRI: Mice are anesthetized with isoflurane and scanned on an ultra-high resolution 14T MRI (Avance III, Bruker BioSpin Corp, Billerica, Mass.). Dynamic manganese enhanced magnetic resonance imaging (dyMEMRI): Mice are anesthetized with isoflurane and administered a unilateral injection of Sul of 1 M MnCl2 intranasally (with occlusion to block septal window). Parameters for magnetization prepared rapid gradient echo (MPRAGE) (TR/TE=11/5.3 ms; Ti=1000 ms; FA=9 deg acquired matrix 108×108 mm over 55 slices, voxel 0.2×0.2×0.4 mm3 interpolated to 0.1×0.1×0.2 mm3). Mice are scanned dynamically for 45 min (early uptake) at 1 hour post administration, allowed to recover and scanned again at 4-6 hours post (late transport) for 60 min. DTI acquired as 4 shot echo planar image (EPI); TR/TE=4000/18 ms, 30 diffusion directions, multislice 2D, b=1000 s/mm2, FOV 19×19 mm, matrix size=128×128 with slice thickness=0.5 mm over 9 min. MicroPET: Metabolic brain activity is assessed using FDG-PET performed under isoflurane anesthesia with 30 min uptake after 250 μCi intraperitoneal injection of FDG. […]
as §3

[7] = system: glia fibrillary acidic protein (GFAP) expression; test: GFAP immunostain of CA1 region of hippocampus (reactive astrocytes); assay type: in vivo, 3×Tg-AD mice; conditions: intranasal 0.6 mg/kg at 2 week intervals for 3 months; vs saline
Description: Histology and Westerns. All confocal microscopy and immunohistochemistry are performed on perfusion fixed tissue prepared from animals that, immediately after euthanasia with pentobaritol (100 mg/kg), are perfused with saline followed by 4 percent paraformaldehyde/saline. For biochemical experiments (Western blots, etc.) other animals are perfused after death with saline and then the brains are rapidly dissected and flash frozen in liquid N2. Brain sections corresponding to the olfactory bulb are stained for Fluoro-Jade (1:1000, Histo-Chem Inc., AR, USA) as a marker of degenerating neurons and can be used to assess if 9 months of paclitaxel intranasal treatment may be neurotoxic. Glial fibrillary acidic protein (GFAP, 1:1500, Dako, Carpinteria, Calif.), an astroglial marker, and ionized calcium-binding adapter molecule 1 (Iba-1) (1:1000 Dako, Carpinteria, Calif.), a marker of microglial activation are processed using Avidin-Biotin procedure, which uses biotinylated secondary antibodies, avidin coupled to horse radish peroxidase (HRP) and reacted with 3,3′diaminobenzidine.
The application of paclitaxel to 3×Tg-AD mice (0.6 mg/kg at 2 week intervals for 3 months, intranasal administration) was investigated. It has been shown that microglia and astrocytes respond acutely to brain injury. […]

spinal cord injury = conditions: after spinal cord injury; cited from earlier work

SMILES: C/C1=C/C[C@@H](/C(C)=C/c2csc(C)n2)OC(=O)C[C@H](O)C(C)(C)C(=O)[C@H](C)[C@@H](O)[C@@H](C)CCC1 [epothilone D]
cognitive performance [1]: improve cognitive performance
tau pathology [1]: reduce associated tau pathology

regional brain uptake level (second distribution graph) [2]: high striatum and hypothalamus uptake
SMILES: CC(=O)O[C@H]1C(=O)[C@@]2(C)[C@H]([C@H](OC(=O)c3ccccc3)[C@]3(O)C[C@H](OC(=O)[C@H](O)[C@@H](NC(=O)c4ccccc4)c4ccccc4)C(C)=C1C3(C)C)[C@]1(OC(C)=O)CO[C@@H]1C[C@@H]2O [paclitaxel]
brain regions taking up taxane (FIG. 4A) [2]: taken up by the olfactory bulbs, the striatum, the hippocampus, the frontal cortex, the hypothalamus, and the cerebellum
injury volume ([3]; 200 ug/kg applied to brain injury site immediately after CCI, MRI 2 days post-surgery, vs vehicle 9.96±2.3, p≦0.05): 7.94±1.5 mm^3
hyperintense voxels (edema) on quantitative T2 maps ([3]; 200 ug/kg applied to brain injury site, 2 days post-surgery, vs vehicle 11.92±3.0, p≦0.05): 8.86±2.2 mm^3
reduction of hyperintense voxels (edema) ([3]; 200 ug/kg applied to brain injury site, vs vehicle): 26%
reduction in injury volume ([3]; 200 ug/kg applied to brain injury site, vs vehicle, T2 and T1 images): 20%
injury volume on T1-weighted MRI (in words) ([3]; paclitaxel versus saline treatment): indicating reduced injury
MPF bound percent, injury side ([4]; mn±sd, vs vehicle 8.95±0.3, p≦0.05): 9.45±0.4
MPF bound percent, contralateral cortical area ([4]; vs vehicle): No difference
increase of MPF bound percent on the injury side ([4]; vs vehicle): 6.6%
maximum print area ([5]; 2 days post-surgery, vs vehicle 0.29±0.08, p≦0.05): 0.38±0.09 cm^2
mean intensity ([5]; 2 days post-surgery, vs vehicle 66.38±5.52, p≦0.05): 79.45±14.26
swing, decreased ([5]; right front (RF) and left hind (LF) only, vs vehicle): 12%
print length, increase ([5]; right hind (RH) only, vs vehicle): 12%
gait parameters (in words) ([5]; short term, 8 days, paclitaxel over saline treated subjects): Improved gait parameters
maximum print area, increased ([5]; vs vehicle): 22-52%
mean intensity, increased ([5]; vs vehicle): 19-22%
print area, increased ([5]; vs vehicle): 20-45%
print width, increased ([5]; vs vehicle): 5-17%
underlying white matter integrity (FA values in external capsule) [6]: No significant improvement
axonal transport rates (3×Tg-AD mice): increased transport significantly; also recorded: Improved axonal transport rates; also recorded: relatively increased
axonal transport rates (wild-type mice): relatively increased
GFAP expression / reactive astrocytes in CA1 region of hippocampus [7]: decreased evidence of activated astrocytes; also recorded: markedly reduced reactive astrocytes; also recorded: reduced GFAP expression levels; also recorded: showing reduced
axon regeneration (spinal cord injury): facilitate axon regeneration
